This is an account of results in patent US12303512B2, “Therapeutically active compounds and their methods of use” (Servier Pharmaceuticals LLC, priority 2021, dated 2025).

This data set in a line: Absorption, distribution, metabolism and excretion of oral [14C]vorasidenib in humans; metabolite profiling in plasma, urine, feces. The conditions noted are these: human, in vivo. As for the experimental part:
Metabolite profiling and identification of vorasidenib (AG-881) was performed in plasma, urine, and fecal samples collected from five healthy subjects after a single 50-mg (100 μCi) oral dose of [14C]AG-881 and concomitant intravenous microdose of [^13C3 ^15N3]AG-881.
Plasma samples collected at selected time points from 0 through 336 hour postdose were pooled across subjects to generate 0- to 72 and 96-336-hour area under the concentration-time curve (AUC)-representative samples. Urine and feces samples were pooled by subject to generate individual urine and fecal pools. Plasma, urine, and feces samples were extracted, as appropriate, the extracts were profiled using high performance liquid chromatography (HPLC), and metabolites were identified by liquid chromatography-mass spectrometry (LC-MS and/or LC-MS/MS) analysis and by comparison of retention time with reference standards, when available.
Due to low radioactivity in samples, plasma metabolite profiling was performed by using accelerator mass spectrometry (AMS). In plasma, AG-881 was accounted for 66.24 and 29.47% of the total radioactivity in the pooled AUC0-72 h and […] plasma, respectively. The most abundant radioactive peak (P7; M458) represented 0.10 and 43.92% of total radioactivity for pooled AUC0-72 and AUC96-336 h plasma, respectively. All other radioactive peaks accounted for less than 6% of the total plasma radioactivity and were not identified.

Each structure is given as a SMILES string.

Turning to `C[C@@H](Nc1nc(N[C@H](C)C(F)(F)F)nc(-c2cccc(Cl)n2)n1)C(F)(F)F` [AG-881, 6-(6-chloropyridin-2-yl)-N2, N4-bis((R)-1,1,1-trifluoropropan-2-yl)-1,3,5-triazine-2,4-diamine, reference compound], the “radioactivity recovered in feces, % of the dose” value was 55.5 % of the dose and the “unchanged parent detected in urine” value is reported as “no AG-881 was detected”. Regarding `CS(=O)(=O)c1cccc(-c2nc(N)nc(N)n2)n1` [Compound M266], the “radioactivity recovered in urine, % of the dose” value is 2.54 % of the dose.

For the molecule `C[C@@H](Nc1nc(N[C@H](C)C(F)(F)F)nc(-c2cccc(S(=O)(=O)O)n2)n1)C(F)(F)F` [Compound M460-1], the “radioactivity recovered in feces, % of the dose” value is 2-5 % of the dose.

Take `C[C@@H](Nc1nc(N[C@H](C)C(F)(F)F)nc(-c2cccc(SCC(N)C(=O)O)n2)n1)C(F)(F)F` (some centres unmarked) [Compound M499]: the “radioactivity recovered in feces, % of the dose” value was 2-5 % of the dose.
